Results on eight molecules are retold here after patent publication US7728107B2 (priority 2005, dated 2010).

Assay [1] has as its target T1, canine 5-HT2A receptor (Canis lupus familiaris, UniProt O46635). In words: biochemical.
Assay [2] addresses T2, human 5-HT2B receptor (Homo sapiens, UniProt P41595).
T2 construct: expressed in transfected cells
The assay is described as follows: biochemical. It counts as binding. As to conditions: read-out: Affinity constant pKI h5-HT2B (converted).

For assay [3], the target named is T3, canine 5-HT2B receptor (Canis lupus familiaris, UniProt Q50DZ8). In words: biochemical. Format: binding. More on the design: Apparent equilibrium dissociation constant KD; other: canine 5-HT2B, COS-7 membranes, mean ± S.E.M. (n = 3 to 6); other: COS-7 membranes; head prints [^3H]-ketanserin; mean ± S.E.M of 3-8 experiments; KD of radioligand; other: canine 5-HT2B, transfected COS-7 membranes; other: HEK-293, Ca^2+ FLIPR, mean ± S.E.M of 3 to 6 experime.

Assay [4] deals with T4, human 5-HT2A receptor (Homo sapiens, UniProt P28223).
T4 construct: expressed in transfected cells
In words: biochemical. It counts as binding.

Assay [5] concerns non-transfected cells (HEK-293, NIH3T3 or CHO). In words: FLIPR Ca^2+ assay in non-transfected cells. As to conditions: non-transfected HEK-293, CHO or NIH3T3 cells. It counts as cell-based. How it is done:
Dye-loaded cells were plated onto 96-well ViewPlates (Packard, Meriden, Conn.) and incubated at 37° C. and 5% CO2 for one hour. Once dye-loaded, dye media was replaced with serum-free DMEM/F-12. […] Ligand-induced Ca^2+ release was measured using a Fluorometric Imaging Plate Reader (FLIPR, Molecular Devices, Sunnyvale, Calif.). Functional responses were measured as peak fluorescence intensity minus basal. The concentration of agonist that produced a half-maximal response is represented by the EC50 value. […] Antagonistic potency values were converted to apparent pKB values using a modified Cheng-Prusoff correction. Apparent pKB=−log IC50/1+[conc agonist/EC50]. Data are expressed as mean±S.E.M.
None of the compounds (10 μM) tested elicited a response in non-transfected cells (HEK-293, NIH3T3 or CHO). In addition, none of the antagonists tested increased Ca^2+ in any of the transfected cell types.

Assay [6] has as its target T1, canine 5-HT2A receptor. The assay is described as follows: cell-based. Format: cell-based. More on the design: The resulting 5-HT2A full length cDNA was cloned into the pCIneo vector; expressed in transfected cells. As to conditions: for Rel. eff. c5-HT2A: HEK-293, fraction of response to 10 μM 5-HT.
Assay [7] addresses T4, human 5-HT2A receptor. The assay is described as follows: cell-based. It counts as cell-based.
In assay [8] the target is T2, human 5-HT2B receptor. The assay is described as follows: cell-based. It counts as cell-based. As to conditions: CHO; fraction of response to 10 μM 5-HT.
The target in assay [9] is T3, canine 5-HT2B receptor. The assay is described as follows: cell-based. It counts as cell-based. More on the design: Apparent equilibrium dissociation constant KD; other: canine 5-HT2B, COS-7 membranes, mean ± S.E.M. (n = 3 to 6); other: COS-7 membranes; head prints [^3H]-ketanserin; mean ± S.E.M of 3-8 experiments; KD of radioligand; other: canine 5-HT2B, transfected COS-7 membranes; other: HEK-293, Ca^2+ FLIPR, mean ± S.E.M of 3 to 6 experime.

Assay [10] has as its target T1, canine 5-HT2A receptor.
Where [11] appears, read: HEK-293, Ca^2+ FLIPR, apparent pKB, mean ± S.E.M of 3 to 6 experiments.

Read-outs that look alike come from different tables or passages of the source.

T4 sequence (P28223 whole entry): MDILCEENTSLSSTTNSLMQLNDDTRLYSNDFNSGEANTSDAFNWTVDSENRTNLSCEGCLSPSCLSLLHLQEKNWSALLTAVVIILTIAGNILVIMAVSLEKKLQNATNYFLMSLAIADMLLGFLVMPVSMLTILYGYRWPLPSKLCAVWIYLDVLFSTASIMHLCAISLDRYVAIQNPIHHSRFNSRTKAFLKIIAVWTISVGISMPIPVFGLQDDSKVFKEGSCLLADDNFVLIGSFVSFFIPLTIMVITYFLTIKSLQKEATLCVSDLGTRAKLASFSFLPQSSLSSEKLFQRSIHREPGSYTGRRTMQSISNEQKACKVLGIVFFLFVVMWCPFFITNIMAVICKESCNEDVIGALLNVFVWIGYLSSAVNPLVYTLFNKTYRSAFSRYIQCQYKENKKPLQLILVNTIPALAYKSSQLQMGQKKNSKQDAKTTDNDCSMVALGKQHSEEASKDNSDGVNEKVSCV
T1 sequence (O46635 whole entry): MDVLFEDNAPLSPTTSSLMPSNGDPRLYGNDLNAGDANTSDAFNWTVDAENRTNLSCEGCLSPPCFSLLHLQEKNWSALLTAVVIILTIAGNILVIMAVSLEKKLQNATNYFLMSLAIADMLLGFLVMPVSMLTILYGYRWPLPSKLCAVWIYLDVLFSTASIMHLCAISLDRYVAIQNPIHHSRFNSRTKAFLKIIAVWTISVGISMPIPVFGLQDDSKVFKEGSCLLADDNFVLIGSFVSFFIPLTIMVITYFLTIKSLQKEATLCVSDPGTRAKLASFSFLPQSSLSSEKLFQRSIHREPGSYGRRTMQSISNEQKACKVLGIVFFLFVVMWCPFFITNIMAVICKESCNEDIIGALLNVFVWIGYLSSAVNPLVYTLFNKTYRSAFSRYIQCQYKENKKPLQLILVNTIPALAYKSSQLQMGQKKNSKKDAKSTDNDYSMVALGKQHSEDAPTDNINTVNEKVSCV
T2 sequence (P41595 whole entry): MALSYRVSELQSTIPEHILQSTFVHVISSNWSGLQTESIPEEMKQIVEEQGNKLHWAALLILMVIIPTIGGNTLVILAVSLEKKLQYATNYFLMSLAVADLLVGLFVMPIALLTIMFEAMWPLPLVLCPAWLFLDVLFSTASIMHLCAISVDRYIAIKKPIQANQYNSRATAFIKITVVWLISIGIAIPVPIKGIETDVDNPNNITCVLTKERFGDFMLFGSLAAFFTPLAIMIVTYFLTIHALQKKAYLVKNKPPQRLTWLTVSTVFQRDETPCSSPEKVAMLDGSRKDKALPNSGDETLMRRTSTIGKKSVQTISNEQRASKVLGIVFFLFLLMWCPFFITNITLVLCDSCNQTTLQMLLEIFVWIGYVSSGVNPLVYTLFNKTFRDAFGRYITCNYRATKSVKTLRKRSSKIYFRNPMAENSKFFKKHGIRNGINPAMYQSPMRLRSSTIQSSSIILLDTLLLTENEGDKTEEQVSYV

For the molecule `CN1CCc2cc(Cl)c(O)cc2[C@@H](c2ccccc2)C1` [SCH-23390, R-(+)-7-chloro-8-hydroxy-3-methyl-1-phenyl-2,3,4,5-tetrahydro(1H)-3-benzapine], the Ki on canine 5-HT2A receptor [1] was 16.2 nM; at human 5-HT2B receptor [2] it was 275 nM; on canine 5-HT2B receptor [3] (read-out: Affinity constant pKI c5-HT2B (converted)), 309 nM; on human 5-HT2A receptor [4], 13.5 nM.

As to `NCCc1c[nH]c2ccc(O)cc12` [5-HT, 5-hydroxytryptamine], the Ki on canine 5-HT2A receptor [1] is 178 nM. The “Ca^2+ response in non-transfected cells” value in assay [5] is reported as “No signal”. Also, the “Rel. eff. c5-HT2A” value on canine 5-HT2A receptor [6] was determined as 1. In addition, at canine 5-HT2A receptor [6] (canine 5-HT2A, HEK-293, FIG. 5A), the “peak fluorescence intensity of Ca^2+ response” value is recorded as 13600 peak fluorescence intensity units. At human 5-HT2A receptor [7], the “Rel. eff. h5-HT2A” value turned out to be 1 and the “peak fluorescence intensity of Ca^2+ response” value is listed as 15800 peak fluorescence intensity units.

As for `Clc1cccc(N2CCNCC2)c1` [m-CPP, 1-(3-chlorophenyl)piperazine], the “Rel. eff h5-HT2B” value on human 5-HT2B receptor [8] came out at 0.55 ± 0.06. Also, the “agonistic response on canine 5-HT2B receptor” value at canine 5-HT2B receptor [9] (HEK-293, Ca^2+ FLIPR) is “no agonistic response”. Moreover, the Ki on canine 5-HT2A receptor [1] was 195 nM; at canine 5-HT2B receptor [3], 20.9 nM. Moreover, at canine 5-HT2A receptor [6], the “Rel. eff. c5-HT2A” value was found to be 0.71 ± 0.04. The “agonist potency at canine 5-HT2A compared to human 5-HT2A” value at canine 5-HT2A receptor [6] (functional Ca^2+ assay, Table 3) is recorded as “higher potencies”. For the same molecule, the “Rel. eff. h5-HT2A” value on human 5-HT2A receptor [7] stood at 0.20 ± 0.02.

As to `CC(N)Cc1c[nH]c2ccc(OCc3cccs3)cc12` (stereo not shown) [BW-723C86, 1-{5-(2-thienyl-methoxy)-1H-3-indolyl}propan-2-amine], the “Rel. eff h5-HT2B” value on human 5-HT2B receptor [8] was found to be 0.98 ± 0.01. For the same molecule, the “Rel. eff. c5-HT2B” value at canine 5-HT2B receptor [9] (HEK-293, fraction of response to 10 μM 5-HT) is 0.93 ± 0.03. Also, the Ki at canine 5-HT2B receptor [3] was 26.3 nM.

For the molecule `O=C(c1ccc(F)cc1)C1CCN(CCn2c(=O)[nH]c3ccccc3c2=O)CC1` [[^3H]-ketanserin], at canine 5-HT2A receptor [1], the Kd worked out at 1.3 ± 0.12 nM.

On to `COc1ccc2[nH]cc(C3=CCNCC3)c2c1` [RU-24969, 5-methoxy-3(1,2,3,6-tetrahydro-4-pyridiny)-1H-indole], for which the Ki at canine 5-HT2B receptor [3] is 12.9 nM.

As to `CN1C[C@@H](NS(=O)(=O)N(C)C)C[C@@H]2c3cccc4c3c(cn4C)C[C@H]21` [[^3H]-mesulergine], the Kd on canine 5-HT2B receptor [3] (canine 5-HT2B, transfected COS-7 membranes, read-out: KD of radioligand) was 5.43 ± 0.69 nM.

As for `CSc1ccc2c(c1)C(N1CCN(C)CC1)Cc1ccccc1S2` (stereo not shown) [Methiothepin, methiothepin], the “Antagonist affinity pKB c5-HT2B” value on canine 5-HT2B receptor [9] (setting [11]) came to 8.07 ± 0.77. At canine 5-HT2A receptor [10], this molecule showed a Ki of 3.55 nM. Further, at canine 5-HT2A receptor [6] (setting [11]), the “Antagonist affinity pKB c5-HT2A” value worked out at 8.33 ± 0.09. The “antagonist affinity for canine 5-HT2A receptor compared to human 5-HT2A receptor” value on canine 5-HT2A receptor [6] (functional Ca^2+ assay, Table 4) was “eleven-fold higher affinity”. The “Affinity constant pKI c5-HT2B” value on canine 5-HT2B receptor [3] (COS-7 membranes, head prints [^3H]-ketanserin, mean ± S.E.M of 3-8 experiments) was determined as 8.12 ± 0.16.
